Test results from PubChem BioAssay (NCI).
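1) Cells in 96-well plates. 2) Compound, 48 h, 5 concentrations. 3) Linear interpolation between surrounding doses. 4) Unreached endpoint = highest concentration. GI50 is the concentration that inhibits growth by half. TGI denotes the concentration required for complete inhibition of growth.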

What was measured:
Assay in all cases: NCI-60 cell line screen, 48 h
[1] = system: 786-0 renal
[2] = system: A498 renal
[3] = system: A549 NSCLC
[4] = system: ACHN renal
[5] = system: BT-549 breast
[6] = system: CAKI-1 renal
[7] = system: CCRF-CEM leukemia
[8] = system: COLO 205 colon
[9] = system: DU-145 prostate
[10] = system: EKVX NSCLC
[11] = system: HCC-2998 colon
[12] = system: HCT-116 colon
[13] = system: HCT-15 colon
[14] = system: HL-60(TB) leukemia
[15] = system: HOP-62 NSCLC
[16] = system: HOP-92 NSCLC
[17] = system: HS 578T breast
[18] = system: HT29 colon
[19] = system: IGROV1 ovarian
[20] = system: K-562 leukemia
[21] = system: KM12 colon
[22] = system: LOX IMVI melanoma
[23] = system: M14 melanoma
[24] = system: MALME-3M melanoma
[25] = system: MCF7 breast
[26] = system: MDA-MB-231 breast
[27] = system: MDA-MB-435
[28] = system: MDA-N
[29] = system: MOLT-4 leukemia
[30] = system: NCI-H226 lung
[31] = system: NCI-H23 lung
[32] = system: NCI-H460 lung
[33] = system: NCI-H522 lung
[34] = system: NCI/ADR-RES ovarian
[35] = system: OVCAR-3 ovarian
[36] = system: OVCAR-4 ovarian
[37] = system: OVCAR-5 ovarian
[38] = system: OVCAR-8 ovarian
[39] = system: PC-3 prostate
[40] = system: RPMI-8226 leukemia
[41] = system: RXF 393 renal
[42] = system: SF-268 CNS
[43] = system: SF-295 CNS
[44] = system: SF-539 CNS
[45] = system: SK-MEL-2 melanoma
[46] = system: SK-MEL-28 melanoma
[47] = system: SK-MEL-5 melanoma
[48] = system: SK-OV-3 ovarian
[49] = system: SN12C renal
[50] = system: SNB-19 CNS
[51] = system: SNB-75 CNS
[52] = system: SR leukemia
[53] = system: SW-620 colon
[54] = system: T-47D breast
[55] = system: TK-10 renal
[56] = system: U251 CNS
[57] = system: UACC-257 melanoma
[58] = system: UACC-62 melanoma
[59] = system: UO-31 renal

Work on `C[C@]12CC[C@@H]3c4cc(I)c(O)cc4CC[C@H]3[C@@H]1CC[C@@H]2O` yielded a TGI [1] of 18.4 µM, a TGI [2] of 24.3 µM and a TGI [3] of 25.1 µM. The TGI [4] was 21 µM, the TGI [5] was 25.1 µM and the TGI [6] was 27 µM. The TGI [7] was 22.4 µM, the TGI [8] was 36.2 µM and the GI50 [9] was 6.9 µM. For the same compound, the TGI [9] was 23.8 µM, the TGI [10] was 15.6 µM and the TGI [11] was 21 µM. The GI50 [12] was 5.01 µM, the TGI [12] was 16.5 µM and the TGI [13] was 8.78 µM. The TGI [14] was over 33.4 µM, the GI50 [15] was 4.22 µM and the TGI [15] was 17.3 µM. The TGI [16] was 26.3 µM, the TGI [17] was 8.6 µM and the TGI [18] was 34.3 µM. It also gave a TGI [19] of 20.5 µM, a TGI [20] of 24.2 µM and a TGI [21] of 13.2 µM. It also gave a TGI [22] of 25.8 µM, a TGI [23] of 17.4 µM and a TGI [24] of 28.3 µM. For the same compound, the TGI [25] was 21.1 µM, the TGI [26] was 25.3 µM and the GI50 [27] was 2.11 µM. For the same compound, the TGI [27] was 8.02 µM, the TGI [28] was 5.77 µM and the TGI [29] was over 54.8 µM. For the same compound, the TGI [30] was 33.4 µM, the TGI [31] was 25.1 µM and the TGI [32] was 16 µM. The TGI [33] was 17.8 µM, the TGI [34] was over 78.2 µM and the TGI [35] was 11.9 µM. For the same compound, the TGI [36] was 39.3 µM, the TGI [37] was 25.7 µM and the TGI [38] was 40.2 µM. The TGI [39] was over 56.4 µM, the TGI [40] was 37.7 µM and the TGI [41] was 20.1 µM. It also gave a TGI [42] of 58.5 µM, a TGI [43] of 16.4 µM and a GI50 [44] of 3.02 µM. The TGI [44] was 7.76 µM, the TGI [45] was 13.7 µM and the TGI [46] was 26.7 µM. For the same compound, the TGI [47] was 12.2 µM, the TGI [48] was 16.4 µM and the GI50 [49] was 6.66 µM. The TGI [49] was 22.2 µM, the TGI [50] was 34.9 µM and the TGI [51] was 12.4 µM. It also gave a TGI [52] of 13.7 µM, a TGI [53] of 13.5 µM and a TGI [54] of 37.4 µM. The TGI [55] was 27.6 µM, the TGI [56] was 16.8 µM and the TGI [57] was 23.5 µM. For the same compound, the GI50 [58] was 3.63 µM, the TGI [58] was 14.5 µM and the TGI [59] was 17.6 µM.
Work on `COc1cc2c(cc1OC)-c1cc3ccccc3c(=O)n1CC2` yielded a TGI [3] of over 100 µM, a TGI [4] of over 100 µM and a TGI [5] of over 100 µM. It also gave a TGI [6] of 64.9 µM, a TGI [7] of over 100 µM and a TGI [8] of over 100 µM. For the same compound, the TGI [9] was over 100 µM, the TGI [10] was over 100 µM and the TGI [11] was 50.1 µM. The TGI [12] was 33.9 µM, the TGI [15] was 37.1 µM and the TGI [16] was 63 µM. The TGI [17] was 50.2 µM, the TGI [18] was 98.9 µM and the TGI [19] was 72.8 µM. The TGI [20] was over 100 µM, the TGI [21] was 53.5 µM and the TGI [22] was 27.5 µM. The TGI [23] was 80.3 µM, the TGI [24] was 61.5 µM and the TGI [25] was over 100 µM. It also gave a TGI [26] of 43.8 µM, a TGI [27] of over 100 µM and a TGI [28] of over 100 µM. The TGI [29] was 97 µM, the TGI [30] was over 100 µM and the TGI [31] was over 100 µM. For the same compound, the TGI [32] was 67.5 µM, the TGI [33] was 40 µM and the TGI [34] was over 100 µM. For the same compound, the TGI [35] was 73.3 µM, the TGI [36] was over 100 µM and the TGI [37] was over 100 µM. The TGI [38] was over 100 µM, the TGI [39] was 40.6 µM and the TGI [40] was 35 µM. For the same compound, the TGI [41] was 21.6 µM, the TGI [42] was over 100 µM and the TGI [43] was 62.1 µM. The TGI [44] was 41.9 µM, the TGI [45] was 48.8 µM and the TGI [46] was 90.5 µM. It also gave a TGI [47] of 23.5 µM, a TGI [48] of 74.5 µM and a TGI [49] of over 100 µM. It also gave a TGI [50] of over 100 µM, a TGI [51] of 92 µM and a TGI [52] of 96.8 µM. The TGI [53] was over 100 µM, the TGI [54] was 81.5 µM and the TGI [55] was 50.7 µM. For the same compound, the TGI [56] was 97.9 µM, the TGI [57] was over 100 µM and the TGI [58] was 39 µM. The TGI [59] was over 100 µM.
Work on `COC(=O)c1cc(C#N)[nH]c1-c1cc(Br)cs1` yielded a TGI [1] of 48.7 µM, a TGI [2] of 18.4 µM and a TGI [3] of 31.7 µM. For the same compound, the TGI [4] was 61.9 µM, the TGI [5] was 35.1 µM and the TGI [6] was 62.7 µM. It also gave a TGI [7] of 39.3 µM, a TGI [8] of 35.6 µM and a TGI [9] of 43.1 µM. For the same compound, the TGI [10] was 47.6 µM, the TGI [11] was over 57.5 µM and the TGI [12] was 28.3 µM. It also gave a TGI [13] of 33.2 µM, a TGI [14] of 38.5 µM and a TGI [15] of 29.9 µM. The TGI [16] was 19.1 µM, the TGI [17] was 45.4 µM and the TGI [18] was 31.7 µM. The TGI [19] was 35.3 µM, the TGI [20] was over 79.9 µM and the TGI [21] was over 53.4 µM. The TGI [22] was 25.5 µM, the TGI [23] was 27.7 µM and the TGI [24] was 34.9 µM. For the same compound, the TGI [25] was 33.7 µM, the TGI [26] was 51.7 µM and the TGI [27] was 31.5 µM. It also gave a TGI [28] of 29.4 µM, a TGI [29] of 50.8 µM and a TGI [30] of 49.4 µM. It also gave a TGI [31] of 25.7 µM, a TGI [32] of 54.5 µM and a TGI [33] of 13.3 µM. It also gave a TGI [34] of 39.3 µM, a TGI [35] of 21.9 µM and a TGI [36] of over 57.7 µM. For the same compound, the TGI [37] was 55.7 µM, the TGI [38] was 43.7 µM and the TGI [39] was 40.9 µM. For the same compound, the TGI [40] was 51.2 µM, the TGI [41] was 23 µM and the TGI [42] was 51 µM. For the same compound, the TGI [43] was 24.7 µM, the TGI [44] was 33.3 µM and the TGI [45] was 35.2 µM. It also gave a TGI [46] of 36.5 µM, a TGI [47] of 21.2 µM and a TGI [48] of 46 µM. The TGI [49] was 32.3 µM, the TGI [50] was 37.3 µM and the TGI [51] was 22.6 µM. The TGI [52] was over 66.3 µM, the TGI [53] was 40.2 µM and the TGI [54] was 12.8 µM. For the same compound, the TGI [55] was 57.1 µM, the TGI [56] was 32.1 µM and the TGI [57] was 28.9 µM. The TGI [58] was 38.4 µM and the TGI [59] was 29.5 µM.
In the case of `CNC(=O)CCCNC(=O)CCCC(=O)N(C)C`, the TGI [1] is reported as over 100 µM, the TGI [2] is reported as over 100 µM and the TGI [3] is reported as over 100 µM. It also gave a TGI [4] of over 100 µM, a TGI [5] of over 100 µM and a TGI [6] of over 100 µM. It also gave a TGI [7] of over 100 µM, a TGI [8] of over 100 µM and a TGI [9] of over 100 µM. For the same compound, the TGI [10] was over 100 µM, the TGI [11] was over 100 µM and the TGI [12] was over 100 µM. The TGI [13] was over 100 µM, the TGI [14] was over 100 µM and the TGI [15] was over 100 µM. It also gave a TGI [16] of over 100 µM, a TGI [17] of over 100 µM and a TGI [18] of over 100 µM. For the same compound, the TGI [19] was over 100 µM, the TGI [20] was over 100 µM and the TGI [21] was over 100 µM. It also gave a TGI [22] of over 100 µM, a TGI [23] of over 100 µM and a TGI [24] of over 100 µM. It also gave a TGI [25] of over 100 µM, a TGI [26] of over 100 µM and a TGI [27] of over 100 µM. For the same compound, the TGI [28] was over 100 µM, the TGI [29] was over 100 µM and the TGI [30] was over 100 µM. It also gave a TGI [31] of over 100 µM, a TGI [32] of over 100 µM and a TGI [33] of over 100 µM. For the same compound, the TGI [34] was over 100 µM, the TGI [35] was over 100 µM and the TGI [37] was over 100 µM. It also gave a TGI [38] of over 100 µM, a TGI [39] of over 100 µM and a TGI [40] of over 100 µM. The TGI [42] was over 100 µM, the TGI [43] was over 100 µM and the TGI [44] was over 100 µM. It also gave a TGI [45] of over 100 µM, a TGI [46] of over 100 µM and a TGI [47] of over 100 µM. The TGI [48] was over 100 µM, the TGI [49] was over 100 µM and the TGI [50] was over 100 µM. The TGI [51] was over 100 µM, the TGI [53] was over 100 µM and the TGI [54] was over 100 µM. The TGI [55] was over 100 µM, the TGI [56] was over 100 µM and the TGI [57] was over 100 µM. For the same compound, the TGI [58] was over 100 µM and the TGI [59] was over 100 µM.
